Reference: patent publication US11077090B2, “Compounds and compositions and uses thereof” (Sunovion Pharmaceuticals Inc., priority 2016, dated 2021)

Test system: compound-treated mice
Assay: Neuropharmacological assay (SmartCube): behavioral activity signature and minimal effective dose
Format: in vivo
Settings: for Potency: minimal effective dose (MED) / minimal effective dose: MED = dose having 50% or more total activity; for AD: ADHD (probability of activity signature) / AG: analgesic (probability of activity signature) / MS: mood stabilizer (probability of activity signature) / UN: uncharacterized CNS activity (probability of activity signature) / AX: anxiolytic (probability of activity signature) / CE: cognitive enhancer (probability of activity signature) / DP: anti-depressant (probability of activity signature) / PS: anti-psychotic (probability of activity signature) / SD: sedative hypnotic (probability of activity signature): i.p. 15 min before test, most efficacious dose(s); for minimal effective dose: Mus musculus, ip, read-out: Potency: minimal effective dose (MED)
In short: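 Video-recorded behavior is compared algorithmically against a reference-compound database, yielding class probabilities (best dose reported). Compounds given i.p. in NMP/PEG/propylene glycol 15 min pre-test at 3 doses; potency as MED, the dose (mpk, range usually 0.3–30) reaching ≥50% total activity.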

Row | Structure (SMILES) | Potency: minimal effective dose (MED) (hydrochloride) | AD: ADHD (probability of activity signature) | AG: analgesic (probability of activity signature) | MS: mood stabilizer (probability of activity signature) | UN: uncharacterized CNS activity (probability of activity signature) | AX: anxiolytic (probability of activity signature) (hydrochloride) | CE: cognitive enhancer (probability of activity signature) (hydrochloride) | DP: anti-depressant (probability of activity signature) (hydrochloride) | PS: anti-psychotic (probability of activity signature) (hydrochloride) | SD: sedative hypnotic (probability of activity signature) (hydrochloride) | Potency: minimal effective dose (MED) | AX: anxiolytic (probability of activity signature) | CE: cognitive enhancer (probability of activity signature) | DP: anti-depressant (probability of activity signature) | PS: anti-psychotic (probability of activity signature) | SD: sedative hypnotic (probability of activity signature) | minimal effective dose [mg/kg]
1 | Cc1ccc2c(c1)C(N)COCC2.Cl (centres unmarked) [Example 31, 8-Methyl-1,2,4,5-tetrahydrobenzo[d]oxepin-1-amine hydrochloride] | C (>10 to ≤30 mpk) | + (LOQ ≤ + <5%) | ++ (5% ≤ ++ <25%) | + (LOQ ≤ + <5%) | +++ (25% ≤ +++ <50%) | ++ (5% ≤ ++ <25%) | + (LOQ ≤ + <5%) | ++ (5% ≤ ++ <25%) | + (LOQ ≤ + <5%) | + (LOQ ≤ + <5%) |  |  |  |  |  |  | 
2 | Cl.NC1COCCc2ccc3ccccc3c21 (centres unmarked) [Example 32] |  | + (LOQ ≤ + <5%) | ++ (5% ≤ ++ <25%) | + (LOQ ≤ + <5%) | + (LOQ ≤ + <5%) |  |  |  |  |  | C (>10 to ≤30 mpk) | ++ (5% ≤ ++ <25%) | + (LOQ ≤ + <5%) | ++ (5% ≤ ++ <25%) | ++ (5% ≤ ++ <25%) | ++ (5% ≤ ++ <25%) | 
3 | Cl.NC1CCOCc2ccccc21 (centres unmarked) [Example 33, 1,3,4,5-Tetrahydrobenzo[c]oxepin-5-amine hydrochloride] |  | + (LOQ ≤ + <5%) | ++ (5% ≤ ++ <25%) | + (LOQ ≤ + <5%) | +++ (25% ≤ +++ <50%) |  |  |  |  |  |  | ++ (5% ≤ ++ <25%) | ++ (5% ≤ ++ <25%) | + (LOQ ≤ + <5%) | ++ (5% ≤ ++ <25%) | + (LOQ ≤ + <5%) | 10 to 30
4 | Cc1ccc2c(c1)C(N)COCC2.Cl (centres unmarked) [Example 34] |  |  |  |  |  |  |  |  |  |  | B (>3 to 10 mpk) | +++ (25% ≤ +++ <50%) | ++ (5% ≤ ++ <25%) | + (LOQ ≤ + <5%) | ++ (5% ≤ ++ <25%) | ++ (5% ≤ ++ <25%) | 
5 | Cl.NC1COCCc2ccc3ccccc3c21 (centres unmarked) [Example 35] |  | + (LOQ ≤ + <5%) | ++ (5% ≤ ++ <25%) | + (LOQ ≤ + <5%) | +++ (25% ≤ +++ <50%) |  |  |  |  |  | B (>3 to 10 mpk) | +++ (25% ≤ +++ <50%) | ++ (5% ≤ ++ <25%) | ++ (5% ≤ ++ <25%) | ++ (5% ≤ ++ <25%) | + (LOQ ≤ + <5%) | 
6 | Cc1ccc2c(c1)CCOCC2N.Cl (centres unmarked) [Example 36] |  | + (LOQ ≤ + <5%) | ++ (5% ≤ ++ <25%) | + (LOQ ≤ + <5%) | ++ (5% ≤ ++ <25%) |  |  |  |  |  |  | ++ (5% ≤ ++ <25%) | +++ (25% ≤ +++ <50%) | ++ (5% ≤ ++ <25%) | ++ (5% ≤ ++ <25%) | ++ (5% ≤ ++ <25%) | 3 to 10
7 | Cc1cccc2c1COCCC2N.Cl (centres unmarked) [Example 37] |  | + (LOQ ≤ + <5%) | ++ (5% ≤ ++ <25%) | + (LOQ ≤ + <5%) | +++ (25% ≤ +++ <50%) |  |  |  |  |  |  | ++ (5% ≤ ++ <25%) | ++ (5% ≤ ++ <25%) | + (LOQ ≤ + <5%) | ++ (5% ≤ ++ <25%) | + (LOQ ≤ + <5%) | 10 to 30
8 | Cl.NC1CCOCc2cc(Cl)ccc21 (centres unmarked) [Example 38] |  | + (LOQ ≤ + <5%) | ++ (5% ≤ ++ <25%) | + (LOQ ≤ + <5%) | +++ (25% ≤ +++ <50%) |  |  |  |  |  |  | ++ (5% ≤ ++ <25%) | + (LOQ ≤ + <5%) | ++ (5% ≤ ++ <25%) | ++ (5% ≤ ++ <25%) | + (LOQ ≤ + <5%) | 10 to 30
9 | Cc1cccc2c1C(N)CCOC2.Cl (centres unmarked) [Example 39] |  | + (LOQ ≤ + <5%) | ++ (5% ≤ ++ <25%) | + (LOQ ≤ + <5%) | ++++ (50% ≤ ++++) |  |  |  |  |  |  | +++ (25% ≤ +++ <50%) | ++ (5% ≤ ++ <25%) | ++ (5% ≤ ++ <25%) | + (LOQ ≤ + <5%) | + (LOQ ≤ + <5%) | 3 to 10
10 | Cl.NC1CCOCc2c(Cl)cccc21 (centres unmarked) [Example 40] |  | + (LOQ ≤ + <5%) | ++ (5% ≤ ++ <25%) | + (LOQ ≤ + <5%) | ++ (5% ≤ ++ <25%) |  |  |  |  |  |  | +++ (25% ≤ +++ <50%) | ++ (5% ≤ ++ <25%) | + (LOQ ≤ + <5%) | ++ (5% ≤ ++ <25%) | + (LOQ ≤ + <5%) | 3 to 10
11 | Cl.NC1CCOCc2cccc(Cl)c21 (centres unmarked) [Example 41] |  | + (LOQ ≤ + <5%) | ++ (5% ≤ ++ <25%) | + (LOQ ≤ + <5%) | +++ (25% ≤ +++ <50%) |  |  |  |  |  |  | ++ (5% ≤ ++ <25%) | ++ (5% ≤ ++ <25%) | ++ (5% ≤ ++ <25%) | + (LOQ ≤ + <5%) | + (LOQ ≤ + <5%) | 10 to 30
12 | Cc1ccc2c(c1C)C(N)COC2.Cl (centres unmarked) [Example 42, 5,6-Dimethylisochroman-4-amine hydrochloride] |  | + (LOQ ≤ + <5%) | +++ (25% ≤ +++ <50%) | + (LOQ ≤ + <5%) | +++ (25% ≤ +++ <50%) |  |  |  |  |  |  | ++ (5% ≤ ++ <25%) | ++ (5% ≤ ++ <25%) | ++ (5% ≤ ++ <25%) | +++ (25% ≤ +++ <50%) | ++ (5% ≤ ++ <25%) | < 3
13 | Cc1ccc2c(c1C)C(N)CCOC2.Cl (centres unmarked) [Example 43, 6,7-Dimethyl-1,3,4,5-tetrahydrobenzo [c]oxepin-5-amine hydrochloride] |  | + (LOQ ≤ + <5%) | ++ (5% ≤ ++ <25%) | + (LOQ ≤ + <5%) | + (LOQ ≤ + <5%) |  |  |  |  |  |  | +++ (25% ≤ +++ <50%) | ++ (5% ≤ ++ <25%) | + (LOQ ≤ + <5%) | ++ (5% ≤ ++ <25%) | ++ (5% ≤ ++ <25%) | 10 to 30
14 | Cl.NC1COCc2ccc(Cl)c(Cl)c21 (centres unmarked) [Example 44, 5,6-Dichloroisochroman-4-amine hydrochloride] |  | + (LOQ ≤ + <5%) | ++ (5% ≤ ++ <25%) | + (LOQ ≤ + <5%) | +++ (25% ≤ +++ <50%) |  |  |  |  |  |  | +++ (25% ≤ +++ <50%) | ++ (5% ≤ ++ <25%) | ++ (5% ≤ ++ <25%) | ++ (5% ≤ ++ <25%) | ++ (5% ≤ ++ <25%) | 3 to 10
15 | Cc1ccc2c(c1Cl)C(N)COC2.Cl (centres unmarked) [Example 45, 5-Chloro-6-methylisochroman-4-amine hydrochloride] |  | + (LOQ ≤ + <5%) | ++ (5% ≤ ++ <25%) | + (LOQ ≤ + <5%) | ++++ (50% ≤ ++++) |  |  |  |  |  |  | +++ (25% ≤ +++ <50%) | ++ (5% ≤ ++ <25%) | ++ (5% ≤ ++ <25%) | ++ (5% ≤ ++ <25%) | ++ (5% ≤ ++ <25%) | 3 to 10
